Patent EP2093218A1, “Arylalkyl substituted imidazolidinones” (Fariello, Ruggero, priority 2008, dated 2009)
Marks after values point to notes of the source that are not given here.

Columns and labels:
PTZ-treated mice = test: Chemically induced seizures (pentylenetetrazole, PTZ); type: in vivo; conditions: for % Protection on PTZ induced convulsions: PTZ 90 mg/kg i.p. 30 min after compound, 20 mice
Description: Seizure-inducer pentylenetetrazole (PTZ) (90 mg/kg i.p.) was administered to mice 30 min after i.p. administration of the test compound.
Compound of Example 1 at the doses of 10 and 30 mg/kg i.p. was able to protect the animals from PTZ-induced convulsions. […]

mice = test: Maximal Electroshock Test (MES); type: in vivo; conditions: for MES % Protection from Tonic Extension: 20 mice; for Time of Straightening Reflex Loss: mean of 20 mice
Description: MES seizures were induced by electroconvulsometer (ECT Unit Ugo Basile, Italy). Mice received an electroshock (50 mA at 60 Hz for 0.2 s duration) through intra-corneal electrodes. This current intensity elicited complete tonic extension of the hindlimbs in control mice. The stimulus was applied 30 min or 60 min after intraperitoneal (i.p.) or oral (p.o.) administration of the test compound, respectively. To evaluate the drug effect on the seizure severity, time of Straightening Reflex Loss and the presence of tonic hindlimb extension were selected as the parameters.

[1] = 10 mg/kg i.p., stimulus 30 min after administration
[2] = 30 mg kg^-1 p.o., stimulus 60 min after administration

Structure (SMILES): C[C@H]1C(=O)NC(C)(C)N1Cc1ccc(OCc2cccc(F)c2)cc1 [Example 1, (S)-(-)-1-[4-(3-Fluoro-benzyloxy)-benzyl]-2,2,5-trimethyl-imidazolidin-4-one]
- % Protection on PTZ induced convulsions (PTZ-treated mice; 3 mg/kg i.p.): 0%
- % Protection on PTZ induced convulsions (PTZ-treated mice; 10 mg/kg i.p.): 40%
- % Protection on PTZ induced convulsions (PTZ-treated mice; 30 mg/kg i.p.): 90%
- protection from PTZ-induced convulsions (in words) (PTZ-treated mice; highest dose (30 mg/kg i.p.)): almost complete
- MES % Protection from Tonic Extension (mice; [1]): 50* %
- Time of Straightening Reflex Loss (mice; [1]): 66.8 ± 9.3 s
- MES % Protection from Tonic Extension (mice; [2]): 30%
- Time of Straightening Reflex Loss (mice; [2]): 56.8 ± 6.3 s
- anticonvulsant activity in MES test (in words) (mice; either after i.p. (10 mg/kg) or oral (30 mg/kg) administration): significant anticonvulsant activity
